Reference: the supplement of paper PMC12463676, “Small-molecule dissolution of stress granules by redox modulation benefits ALS models” (Nature Chemical Biology, 2025)

Legend:
lipoamide = compound: NC(=O)CCCCC1CCSS1 [lipoamide]; assay: thermal stability z-score vs DMSO; higher = more thermally stabilized by treatment; conditions: HeLa, lipoamide concentration 100 µM
Procedure: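 Cellular thermal proteome profiling in HeLa cells. Cells were treated with 100 µM lipoamide for 1 h, with or without 1 mM arsenate for a further 1 h, then heated to ten temperatures (37-66.3 °C), and soluble protein was quantified by TMT mass spectrometry relative to 0.1% DMSO controls. The thermal stability score (sum of log2 fold changes minus the abundance score) was transformed to a z-score; mean of n = 3 experiments.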

potassium arsenate = compound: O=[As]([O-])(O)O.[K+] [potassium arsenate]; assay: as above; conditions: HeLa; arsenate concentration 1 mM
Procedure: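 Cellular thermal proteome profiling in HeLa cells treated with 1 mM arsenate for 1 h (DMSO pretreatment), heated to ten temperatures (37-66.3 °C). Soluble protein was quantified by TMT mass spectrometry relative to DMSO controls; the thermal stability score was transformed to a z-score; mean of n = 3 experiments.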

[1] = arsenate co-treatment: 1 mM arsenate 1 h
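Also: each temperature applied for 3 min, abundance score taken as mean log2 fold change at the two lowest temperatures, z-score obtained by mean subtraction and division by SD.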

## SUMO2 (UniProt P61956)
lipoamide; [1]
  thermal stability z-score: 1.1
lipoamide; arsenate co-treatment: none
  thermal stability z-score: 1.59
Potassium arsenate
  thermal stability z-score: 0.306

## ATP5D (UniProt P30049)
lipoamide; [1]
  thermal stability z-score: 1.09
lipoamide; arsenate co-treatment: none
  thermal stability z-score: 0.762
Potassium arsenate
  thermal stability z-score: 0.463

## NDUFB3 (UniProt O43676)
lipoamide; [1]
  thermal stability z-score: 0.00119
lipoamide; arsenate co-treatment: none
  thermal stability z-score: -0.236
Potassium arsenate
  thermal stability z-score: 0.36

## MATK (UniProt P42679)
lipoamide; [1]
  thermal stability z-score: -0.101
lipoamide; arsenate co-treatment: none
  thermal stability z-score: -0.0941
Potassium arsenate
  thermal stability z-score: -0.0451

## POLR2D (UniProt O15514)
lipoamide; [1]
  thermal stability z-score: 1.21
lipoamide; arsenate co-treatment: none
  thermal stability z-score: 0.628
Potassium arsenate
  thermal stability z-score: -0.735

## TSSC1 (UniProt Q53HC9)
lipoamide; [1]
  thermal stability z-score: 0.436
lipoamide; arsenate co-treatment: none
  thermal stability z-score: -0.204
Potassium arsenate
  thermal stability z-score: -0.25

## TRAF4 (UniProt Q9BUZ4)
Sequence of UniProt Q9BUZ4 (Q9BUZ4 whole entry): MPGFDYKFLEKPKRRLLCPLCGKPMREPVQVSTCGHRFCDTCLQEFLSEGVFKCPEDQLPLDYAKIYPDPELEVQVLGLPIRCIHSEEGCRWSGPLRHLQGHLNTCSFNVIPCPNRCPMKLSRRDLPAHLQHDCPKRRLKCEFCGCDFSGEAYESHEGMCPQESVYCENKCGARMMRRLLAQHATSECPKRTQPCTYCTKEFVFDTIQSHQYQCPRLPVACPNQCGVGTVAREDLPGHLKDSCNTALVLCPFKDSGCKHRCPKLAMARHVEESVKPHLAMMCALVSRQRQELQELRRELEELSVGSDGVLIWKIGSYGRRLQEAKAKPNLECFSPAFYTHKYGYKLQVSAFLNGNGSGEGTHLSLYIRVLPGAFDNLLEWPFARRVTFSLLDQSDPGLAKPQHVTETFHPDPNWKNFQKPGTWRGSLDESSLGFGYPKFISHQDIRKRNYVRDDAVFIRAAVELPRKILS
lipoamide; [1]
  thermal stability z-score: -0.818
lipoamide; arsenate co-treatment: none
  thermal stability z-score: -0.748
Potassium arsenate
  thermal stability z-score: -4.33

## HSPA12A (UniProt O43301)
lipoamide; [1]
  thermal stability z-score: -0.677
lipoamide; arsenate co-treatment: none
  thermal stability z-score: -0.446
Potassium arsenate
  thermal stability z-score: -0.84

## FAM173B (UniProt Q6P4H8)
lipoamide; [1]
  thermal stability z-score: -0.478
lipoamide; arsenate co-treatment: none
  thermal stability z-score: 1.31
Potassium arsenate
  thermal stability z-score: -0.0461

## SBDS (UniProt Q9Y3A5)
lipoamide; [1]
  thermal stability z-score: 0.328
lipoamide; arsenate co-treatment: none
  thermal stability z-score: 0.706
Potassium arsenate
  thermal stability z-score: 0.306

## MPZL1 (UniProt O95297)
lipoamide; [1]
  thermal stability z-score: 0.0579
lipoamide; arsenate co-treatment: none
  thermal stability z-score: 0.206
Potassium arsenate
  thermal stability z-score: 0.179

## OCRL (UniProt Q01968)
lipoamide; [1]
  thermal stability z-score: 0.142
lipoamide; arsenate co-treatment: none
  thermal stability z-score: 0.13
Potassium arsenate
  thermal stability z-score: 0.24

## HSD17B8 (UniProt Q92506)
Sequence of UniProt Q92506 (Q92506 whole entry): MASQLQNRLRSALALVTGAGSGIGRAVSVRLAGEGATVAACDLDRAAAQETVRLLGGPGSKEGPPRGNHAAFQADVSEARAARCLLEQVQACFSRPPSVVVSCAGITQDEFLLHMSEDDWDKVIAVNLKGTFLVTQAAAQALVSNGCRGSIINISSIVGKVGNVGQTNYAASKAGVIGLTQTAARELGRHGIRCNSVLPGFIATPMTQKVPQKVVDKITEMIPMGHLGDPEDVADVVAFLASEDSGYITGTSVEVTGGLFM
lipoamide; [1]
  thermal stability z-score: 0.281
lipoamide; arsenate co-treatment: none
  thermal stability z-score: 0.0946
Potassium arsenate
  thermal stability z-score: -0.785

## MSLN (UniProt Q13421)
lipoamide; [1]
  thermal stability z-score: -0.583
lipoamide; arsenate co-treatment: none
  thermal stability z-score: -0.696
Potassium arsenate
  thermal stability z-score: -2.44

## ALDH3B1 (UniProt P43353)
Sequence of UniProt P43353 (P43353 whole entry): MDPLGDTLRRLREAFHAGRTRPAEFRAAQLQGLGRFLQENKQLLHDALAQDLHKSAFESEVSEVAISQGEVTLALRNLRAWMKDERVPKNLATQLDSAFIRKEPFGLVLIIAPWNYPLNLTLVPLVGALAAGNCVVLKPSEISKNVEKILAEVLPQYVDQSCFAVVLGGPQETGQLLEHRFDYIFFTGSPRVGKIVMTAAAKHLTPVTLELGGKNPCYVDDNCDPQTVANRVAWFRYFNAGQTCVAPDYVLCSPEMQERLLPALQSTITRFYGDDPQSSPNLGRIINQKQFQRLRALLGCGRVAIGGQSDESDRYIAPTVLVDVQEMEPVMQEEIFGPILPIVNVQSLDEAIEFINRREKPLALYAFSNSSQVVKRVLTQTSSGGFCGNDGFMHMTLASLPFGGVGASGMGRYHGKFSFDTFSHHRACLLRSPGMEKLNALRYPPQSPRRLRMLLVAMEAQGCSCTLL
lipoamide; [1]
  thermal stability z-score: -0.215
lipoamide; arsenate co-treatment: none
  thermal stability z-score: 0.338
Potassium arsenate
  thermal stability z-score: 1.26

## RANBP6 (UniProt O60518)
Sequence of UniProt O60518 (O60518 whole entry): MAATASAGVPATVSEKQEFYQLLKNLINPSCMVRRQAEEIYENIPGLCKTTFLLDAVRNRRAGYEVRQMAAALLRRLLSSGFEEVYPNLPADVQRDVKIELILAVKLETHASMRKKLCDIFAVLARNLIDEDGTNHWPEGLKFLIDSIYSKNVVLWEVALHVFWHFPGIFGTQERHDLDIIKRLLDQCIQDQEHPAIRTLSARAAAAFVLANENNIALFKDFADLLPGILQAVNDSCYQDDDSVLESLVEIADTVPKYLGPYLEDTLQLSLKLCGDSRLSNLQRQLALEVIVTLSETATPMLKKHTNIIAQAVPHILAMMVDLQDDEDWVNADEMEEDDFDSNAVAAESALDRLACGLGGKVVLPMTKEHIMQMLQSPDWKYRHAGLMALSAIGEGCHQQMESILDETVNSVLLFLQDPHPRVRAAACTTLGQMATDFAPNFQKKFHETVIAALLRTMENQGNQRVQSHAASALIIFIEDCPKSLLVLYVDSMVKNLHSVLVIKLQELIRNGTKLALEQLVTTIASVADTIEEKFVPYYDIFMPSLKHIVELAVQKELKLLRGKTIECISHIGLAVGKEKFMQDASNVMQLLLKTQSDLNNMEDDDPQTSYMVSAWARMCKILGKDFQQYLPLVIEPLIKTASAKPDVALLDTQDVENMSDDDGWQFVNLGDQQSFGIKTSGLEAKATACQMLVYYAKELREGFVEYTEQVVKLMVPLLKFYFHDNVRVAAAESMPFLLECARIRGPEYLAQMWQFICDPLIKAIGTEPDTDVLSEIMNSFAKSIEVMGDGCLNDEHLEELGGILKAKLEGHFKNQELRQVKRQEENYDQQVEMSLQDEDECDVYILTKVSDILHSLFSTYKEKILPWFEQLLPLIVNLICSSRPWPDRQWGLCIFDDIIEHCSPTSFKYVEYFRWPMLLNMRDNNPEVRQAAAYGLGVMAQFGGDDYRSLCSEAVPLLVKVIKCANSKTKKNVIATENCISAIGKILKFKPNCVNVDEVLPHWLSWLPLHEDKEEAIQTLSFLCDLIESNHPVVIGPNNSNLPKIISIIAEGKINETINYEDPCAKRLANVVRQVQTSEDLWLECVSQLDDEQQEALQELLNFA
lipoamide; [1]
  thermal stability z-score: -0.296
lipoamide; arsenate co-treatment: none
  thermal stability z-score: -0.155
Potassium arsenate
  thermal stability z-score: -0.131

## GTF2A1 (UniProt P52655)
lipoamide; [1]
  thermal stability z-score: 1.26
lipoamide; arsenate co-treatment: none
  thermal stability z-score: 1.56
Potassium arsenate
  thermal stability z-score: 1.02

## OPLAH (UniProt O14841)
lipoamide; [1]
  thermal stability z-score: -0.0343
lipoamide; arsenate co-treatment: none
  thermal stability z-score: 0.0614
Potassium arsenate
  thermal stability z-score: -0.0405

## PDZD8 (UniProt Q8NEN9)
lipoamide; [1]
  thermal stability z-score: -0.155
lipoamide; arsenate co-treatment: none
  thermal stability z-score: 0.291
Potassium arsenate
  thermal stability z-score: 0.123

## DDX23 (UniProt Q9BUQ8)
lipoamide; [1]
  thermal stability z-score: 0.326
lipoamide; arsenate co-treatment: none
  thermal stability z-score: 0.137
Potassium arsenate
  thermal stability z-score: -0.836

## DIS3 (UniProt Q9Y2L1)
Sequence of UniProt Q9Y2L1 (Q9Y2L1 whole entry): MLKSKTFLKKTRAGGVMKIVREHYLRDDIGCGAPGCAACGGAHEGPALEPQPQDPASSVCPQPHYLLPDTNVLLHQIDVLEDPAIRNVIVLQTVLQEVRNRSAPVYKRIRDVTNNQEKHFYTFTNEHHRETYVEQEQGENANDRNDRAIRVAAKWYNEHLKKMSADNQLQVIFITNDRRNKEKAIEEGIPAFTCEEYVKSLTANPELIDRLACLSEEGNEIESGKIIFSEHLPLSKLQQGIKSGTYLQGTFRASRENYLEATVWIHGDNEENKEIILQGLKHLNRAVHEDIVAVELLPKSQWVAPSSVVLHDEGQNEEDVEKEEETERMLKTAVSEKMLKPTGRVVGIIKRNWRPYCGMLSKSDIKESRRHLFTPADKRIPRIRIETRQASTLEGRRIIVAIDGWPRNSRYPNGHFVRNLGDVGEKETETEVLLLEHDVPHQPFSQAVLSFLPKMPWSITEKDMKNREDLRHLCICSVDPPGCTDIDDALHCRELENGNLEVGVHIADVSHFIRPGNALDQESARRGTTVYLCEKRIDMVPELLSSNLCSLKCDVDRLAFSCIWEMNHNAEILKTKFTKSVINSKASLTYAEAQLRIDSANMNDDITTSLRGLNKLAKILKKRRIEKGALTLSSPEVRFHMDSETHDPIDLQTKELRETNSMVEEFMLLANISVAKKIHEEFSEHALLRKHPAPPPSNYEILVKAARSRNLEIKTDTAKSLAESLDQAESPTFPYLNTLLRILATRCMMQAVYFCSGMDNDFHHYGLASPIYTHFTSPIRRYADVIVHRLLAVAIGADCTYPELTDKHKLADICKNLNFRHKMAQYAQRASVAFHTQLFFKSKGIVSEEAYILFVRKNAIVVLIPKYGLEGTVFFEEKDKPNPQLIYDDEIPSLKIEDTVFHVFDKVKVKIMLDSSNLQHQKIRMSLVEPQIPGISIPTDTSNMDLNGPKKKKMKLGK
lipoamide; [1]
  thermal stability z-score: -0.727
lipoamide; arsenate co-treatment: none
  thermal stability z-score: -0.422
Potassium arsenate
  thermal stability z-score: -1.52

## IFNGR1 (UniProt P15260)
lipoamide; [1]
  thermal stability z-score: -0.824
lipoamide; arsenate co-treatment: none
  thermal stability z-score: -1.59
Potassium arsenate
  thermal stability z-score: -1.27

## RAF1 (UniProt P04049)
lipoamide; [1]
  thermal stability z-score: -0.142
lipoamide; arsenate co-treatment: none
  thermal stability z-score: 0.126
Potassium arsenate
  thermal stability z-score: -0.0609

## ZDHHC17 (UniProt Q8IUH5)
lipoamide; [1]
  thermal stability z-score: 0.571
lipoamide; arsenate co-treatment: none
  thermal stability z-score: 1.07
Potassium arsenate
  thermal stability z-score: 0.191

## ERCC5 (UniProt P28715)
lipoamide; [1]
  thermal stability z-score: 0.121
lipoamide; arsenate co-treatment: none
  thermal stability z-score: 0.0638
Potassium arsenate
  thermal stability z-score: 0.401

## ZYX (UniProt Q15942)
Sequence of UniProt Q15942 (Q15942 whole entry): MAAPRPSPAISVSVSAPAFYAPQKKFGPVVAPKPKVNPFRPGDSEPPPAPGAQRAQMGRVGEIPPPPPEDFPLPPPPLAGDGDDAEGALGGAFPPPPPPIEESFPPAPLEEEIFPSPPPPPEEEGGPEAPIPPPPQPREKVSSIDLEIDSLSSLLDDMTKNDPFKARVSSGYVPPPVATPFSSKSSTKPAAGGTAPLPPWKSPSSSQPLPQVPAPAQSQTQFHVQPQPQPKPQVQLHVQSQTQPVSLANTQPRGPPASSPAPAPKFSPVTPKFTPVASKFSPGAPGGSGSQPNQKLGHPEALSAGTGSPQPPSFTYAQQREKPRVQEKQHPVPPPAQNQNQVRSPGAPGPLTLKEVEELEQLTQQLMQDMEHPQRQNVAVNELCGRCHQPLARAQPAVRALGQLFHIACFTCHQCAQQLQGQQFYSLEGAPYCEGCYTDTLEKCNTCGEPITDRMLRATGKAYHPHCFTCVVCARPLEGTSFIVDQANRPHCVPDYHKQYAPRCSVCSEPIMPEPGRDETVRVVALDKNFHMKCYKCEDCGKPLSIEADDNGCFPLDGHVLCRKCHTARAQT
lipoamide; [1]
  thermal stability z-score: 0.568
lipoamide; arsenate co-treatment: none
  thermal stability z-score: 0.672
Potassium arsenate
  thermal stability z-score: -0.00636

## NOL7 (UniProt Q9UMY1)
Sequence of UniProt Q9UMY1 (Q9UMY1 whole entry): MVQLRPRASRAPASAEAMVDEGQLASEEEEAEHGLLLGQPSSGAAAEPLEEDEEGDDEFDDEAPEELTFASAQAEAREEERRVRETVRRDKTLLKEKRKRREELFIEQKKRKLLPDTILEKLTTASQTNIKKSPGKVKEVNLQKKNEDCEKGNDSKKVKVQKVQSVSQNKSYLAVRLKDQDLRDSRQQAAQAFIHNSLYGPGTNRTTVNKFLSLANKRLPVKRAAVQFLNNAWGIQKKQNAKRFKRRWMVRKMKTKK
lipoamide; [1]
  thermal stability z-score: 0.225
lipoamide; arsenate co-treatment: none
  thermal stability z-score: -0.325
Potassium arsenate
  thermal stability z-score: -0.698

## IFT74 (UniProt Q96LB3)
lipoamide; [1]
  thermal stability z-score: -0.121
lipoamide; arsenate co-treatment: none
  thermal stability z-score: -0.049
Potassium arsenate
  thermal stability z-score: -0.115

## PDCD2L (UniProt Q9BRP1)
lipoamide; [1]
  thermal stability z-score: 0.275
lipoamide; arsenate co-treatment: none
  thermal stability z-score: 0.139
Potassium arsenate
  thermal stability z-score: -0.161

## PYROXD1 (UniProt Q8WU10)
lipoamide; [1]
  thermal stability z-score: 0.569
lipoamide; arsenate co-treatment: none
  thermal stability z-score: 0.443
Potassium arsenate
  thermal stability z-score: -1.15

## EMD (UniProt P50402)
Sequence of UniProt P50402 (P50402 whole entry): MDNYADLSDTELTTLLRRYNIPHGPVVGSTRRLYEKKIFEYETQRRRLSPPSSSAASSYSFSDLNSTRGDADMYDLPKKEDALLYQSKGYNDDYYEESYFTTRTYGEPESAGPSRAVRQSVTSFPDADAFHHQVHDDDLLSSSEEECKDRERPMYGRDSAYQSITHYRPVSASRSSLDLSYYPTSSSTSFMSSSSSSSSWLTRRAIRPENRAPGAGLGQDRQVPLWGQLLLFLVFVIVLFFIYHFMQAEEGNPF
lipoamide; [1]
  thermal stability z-score: -0.75
lipoamide; arsenate co-treatment: none
  thermal stability z-score: -0.633
Potassium arsenate
  thermal stability z-score: -0.405

## SH3KBP1 (UniProt Q96B97)
lipoamide; [1]
  thermal stability z-score: 0.46
lipoamide; arsenate co-treatment: none
  thermal stability z-score: 0.0841
Potassium arsenate
  thermal stability z-score: -0.523

## STOM (UniProt P27105)
lipoamide; [1]
  thermal stability z-score: -0.123
lipoamide; arsenate co-treatment: none
  thermal stability z-score: 0.354
Potassium arsenate
  thermal stability z-score: 0.0471

## RHOT2 (UniProt Q8IXI1)
Sequence of UniProt Q8IXI1 (Q8IXI1 whole entry, looked up): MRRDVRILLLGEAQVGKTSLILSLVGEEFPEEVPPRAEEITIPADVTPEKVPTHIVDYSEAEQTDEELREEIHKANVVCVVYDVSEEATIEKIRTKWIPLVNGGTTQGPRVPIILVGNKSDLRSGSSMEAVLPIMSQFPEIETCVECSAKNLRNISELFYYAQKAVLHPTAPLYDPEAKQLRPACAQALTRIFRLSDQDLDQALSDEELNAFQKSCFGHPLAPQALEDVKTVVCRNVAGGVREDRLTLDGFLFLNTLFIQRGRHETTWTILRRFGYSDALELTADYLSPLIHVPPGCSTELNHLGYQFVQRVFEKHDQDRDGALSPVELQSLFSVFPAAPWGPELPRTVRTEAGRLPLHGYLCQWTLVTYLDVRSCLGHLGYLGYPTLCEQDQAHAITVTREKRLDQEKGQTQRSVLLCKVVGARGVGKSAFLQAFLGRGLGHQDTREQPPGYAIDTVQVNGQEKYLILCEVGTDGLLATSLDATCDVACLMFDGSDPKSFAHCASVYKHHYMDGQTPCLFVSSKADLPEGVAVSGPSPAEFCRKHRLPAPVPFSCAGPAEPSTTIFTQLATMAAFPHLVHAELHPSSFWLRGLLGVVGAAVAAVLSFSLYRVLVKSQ
lipoamide; [1]
  thermal stability z-score: -0.832
lipoamide; arsenate co-treatment: none
  thermal stability z-score: -0.929
Potassium arsenate
  thermal stability z-score: -0.176

## HACL1 (UniProt Q9UJ83)
lipoamide; [1]
  thermal stability z-score: 0.259
lipoamide; arsenate co-treatment: none
  thermal stability z-score: -0.331
Potassium arsenate
  thermal stability z-score: 0.107

## MYOF (UniProt Q9NZM1)
lipoamide; [1]
  thermal stability z-score: -0.259
lipoamide; arsenate co-treatment: none
  thermal stability z-score: 0.0805
Potassium arsenate
  thermal stability z-score: 0.0213
